Results published in PMC5408612, “Biophysical studies of cholesterol effects on chromatin” (Journal of Lipid Research, 2017).

Molecular target: T1, long chromatin fibers (chicken histone octamer on 177 bp x 36 array of 601 DNA) (Gallus gallus, UniProt P02263+P0C1H3+P62801+P84229)
T1 construct: gene H3-I
Conditions: labelled compound; 0.5 and 1 uM; on ice; with or without 4.5 mM MgCl2; histone-DNA complex, site on histone versus DNA not resolved

## CC1=CC(C)=[N+]2C1=C(CC[C@@H](C)[C@H]1CC[C@H]3[C@@H]4CC=C5C[C@@H](O)CC[C@]5(C)[C@H]4CC[C@]13C)c1c(C)cc(C)n1[B-]2(F)F [TopFluor cholesterol, 23-(dipyrrometheneborondifluoride)-24-norcholesterol]
  fluorescence co-migration in native agarose gel (EMSA), pelleting assay: cholesterol bound avidly to open or compacted chromatin fibers
